Tests used:
Test in all cases: absorbance at […] nm, p-nitrophenol release
[1] = biological target: T1, B. stearothermophilus α-glucosidase; type: biochemical, Geobacillus stearothermophilus; settings: pNPG substrate, 0.1 mol/L potassium phosphate pH 7, 37 °C, 20 min preincubation, enzyme 0.10 U/mL
T1 construct: gene exo-alpha-1; commercial enzyme (Sigma Aldrich, Singapore)

Rice α-glucosidase = biological target: T2, Rice α-glucosidase; type: biochemical, Oryza sativa; settings: pNPG substrate, 0.1 mol/L potassium phosphate pH 7, 37 °C, 20 min preincubation, enzyme 1.0 U/mL
T2 construct: gene Os06g0675700; commercial enzyme from rice, type 4 (Sigma Aldrich)

[2] = biological target: T3, Rat intestinal α-glucosidase; type: biochemical; settings: pNPG substrate, 0.1 mol/L potassium phosphate pH 7, 37 °C, 20 min preincubation, intestinal acetone powder preparation
T3 construct: gene Si; preparation from rat intestinal acetone powder (Sigma Aldrich)

[3] = biological target: T4, S. cerevisiae α-glucosidase; type: biochemical, Saccharomyces cerevisiae; settings: pNPG substrate, 0.1 mol/L potassium phosphate pH 7, 37 °C, 20 min preincubation, enzyme 0.25 U/mL
T4 construct: gene MAL12; commercial yeast enzyme (Sigma Aldrich, Singapore)

SMILES: C[C@H]1O[C@H](O[C@H]2[C@H](O)[C@@H](O)[C@@H](O[C@H]3[C@H](O)[C@@H](O)C(O)O[C@@H]3CO)O[C@@H]2CO)[C@H](O)[C@@H](O)[C@@H]1N[C@H]1C=C(CO)[C@@H](O)[C@H](O)[C@H]1O (stereo partly shown) [acarbose]
- Inhibition by Acarbose / IC50 [1]: 0.042 ± 0.003 µg/mL
- Inhibition by Acarbose / IC50 (Rice α-glucosidase): 3.04 ± 0.82 µg/mL
- Inhibition by Acarbose / IC50 [2]: 78 ± 3.2 µg/mL
- α-Glucosidase Inhibition / IC50 [3]: 1095 ± 93 µg/mL

From paper PMC5706040, “Reclamation of Marine Chitinous Materials for the Production of α-Glucosidase Inhibitors via Microbial Conversion” (Marine Drugs, 2017)
